From US6916773B2, “Non-surfactant solubilizing agent” (Ecolab, Inc., priority 2002, dated 2005) come the findings set out here.

Type in all cases: physicochemical
Holding throughout (settings): room temperature

Series [1] is described as follows: Sodium benzoate added to aqueous solvent solution until single phase observed (benzyl alcohol). As to the method:
(§1) Aqueous solutions of dipropylene glycol n-butyl ether(DPnB), propylene glycol phenyl ether(PPh), and benzyl alcohol were prepared and sodium benzoate was added at room temperature to each solution until a single phase solution was observed.

Series [2] is described as follows: Sodium benzoate added to aqueous solvent solution until single phase observed (DPnB). The procedure:
as §1

Series [3] is described as follows: Sodium benzoate added to aqueous solvent solution until single phase observed (PPh). The procedure: as §1

As to `O=C([O-])c1ccccc1.[Na+]` [Na Benzoate, sodium benzoate], the “Na Benzoate at which a single phase solution was observed” value (from here on “Na Benzoate”) in series [1] (Water 44 wt %, Benzyl Alcohol 44 wt %) was found to be 12 wt %; in series [1] (Water 61 wt %, Benzyl Alcohol 26 wt %) it was 13 wt %; in series [1] (Water 69 wt %, Benzyl Alcohol 17 wt %), 14 wt %; in series [1] (Water 74 wt %, Benzyl Alcohol 13 wt %), 13 wt %; in series [1] (Water 78 wt %, Benzyl Alcohol 9 wt %) it was 13 wt %; in series [1] (Water 85 wt %, Benzyl Alcohol 4 wt %) it was 11 wt %. Further, the “Na Benzoate” value worked out at 0 wt % in series [1] (Water 98 wt %, Benzyl Alcohol 2 wt %); 0 wt % in series [1] (Water 99 wt %, Benzyl Alcohol 1 wt %); 10 wt % in series [2] (Water 45 wt %, DPnB 45 wt %); 12 wt % in series [2] (Water 62 wt %, DPnB 26 wt %); 12 wt % in series [2] (Water 70 wt %, DPnB 18 wt %); 12 wt % in series [2] (Water 75 wt %, DPnB 13 wt %). Moreover, the “Na Benzoate” value in series [2] (Water 79 wt %, DPnB 9 wt %) was 12 wt %; in series [2] (Water 86 wt %, DPnB 4 wt %) it was 10 wt %; in series [2] (Water 98 wt %, DPnB 2 wt %) it was 0 wt %; in series [2] (Water 99 wt %, DPnB 1 wt %), 0 wt %; in series [3] (Water 43 wt %, PPh 43 wt %) it was 14 wt %; in series [3] (Water 58 wt %, PPh 25 wt %), 17 wt %. Moreover, the “Na Benzoate” value is 21 wt % in series [3] (Water 63 wt %, PPh 16 wt %); 19 wt % in series [3] (Water 69 wt %, PPh 12 wt %); 18 wt % in series [3] (Water 74 wt %, PPh 8 wt %); 17 wt % in series [3] (Water 79 wt %, PPh 4 wt %); 15 wt % in series [3] (Water 83 wt %, PPh 2 wt %); 6 wt % in series [3] (Water 93 wt %, PPh 1 wt %).
